Results on one compound are retold here after US12138254B2, “Chronic nightly dosing of lasmiditan for migraine prevention” (Eli Lilly and Company, priority 2018, dated 2024).

Structures are written as SMILES. Entries after “also recorded” stand apart in the source; their conditions may differ. Read-outs that look alike come from different tables or passages of the source.

The nature of data set [1]: Unbound plasma and brain levels of lasmiditan in rats from dural PPE studies. To be noted: rat; for concentration at 1 h / concentration at 24 h: male, Sprague-Dawley; for concentration at 1 h: 1 hr post-dose; for concentration at 24 h: 24 hrs post-dose. The class given is in vivo, Sprague-Dawley rats. The procedure:
Lasmiditan-hemisuccinate is dissolved in sterile water. All doses of lasmiditan are reported as free base equivalent doses, accounting for the weight of the salt. Envigo Sprague-Dawley, Sprague-Dawley male rats (250-350 grams, n=4/group) are fasted overnight prior to dosing. The animals are orally gavaged (2 mL/kg dose volume) with test compound or vehicle one hour prior to stimulation time and returned to their cages with only water available. Approximately 50 minutes post-dosing, the rats are anesthetized with Nembutal (65 mg/kg, ip.) and implanted with stainless steel stimulating electrodes (Rhodes Medical Systems, Inc.) to a depth of 9.2 mm. from the dura. The femoral vein is exposed and fluorescein isothiocyanate-labeled bovine serum albumin (FITC-BSA) (20 mg/kg, iv.), is injected into the femoral vein 2 minutes prior to stimulation. The FITC-BSA functions as a marker for protein extravasation. The left trigeminal ganglion is stimulated for 5 minutes at a current intensity of 1.0 mA (5 Hz, 5 msec pulse duration) with a Model S48 Grass Instrument Stimulator with PSIU6 photoelectric isolation unit (Grass-Telefactor). Five minutes following stimulation, a blood sample is collected by cardiac puncture and the rats are sacrificed by exsanguination with 40 ml of saline. One milliliter of blood is collected and placed in a 1.5 ml EDTA coated tube (Fisher Cat. #540734) on ice. Plasma is separated via centrifugation at 10,000 rpm (941 g) for thirty minutes at 4° C. The top of the skull is removed to collect the brain and dural membranes. The brain and plasma samples are frozen at −80° C. until thawed for compound quantification. The membrane samples are removed from both hemispheres, rinsed with water, and spread flat on microscope slides. The slides are dried for 15 minutes on a slide warmer, then the tissues are cover-slipped with a 70% glycerol/water solution. A fluorescence microscope (Zeiss) equipped with a grating monochromator and a spectrophotometer is used to quantify the amount of FITC-BSA dye in each dural sample. The extravasation induced by electrical stimulation of the trigeminal ganglion is an ipsilateral effect (i.e. occurs only on the side of the dura in which the trigeminal ganglion was stimulated). This allows the other (unstimulated) half of the dura to be used as the control. The ratio of extravasation in the dura from the stimulated side versus the unstimulated side is calculated and reported as the extravasation ratio for each animal. The mean extravasation ratio and standard error of the mean (SEM) are calculated for each treatment group. Controls yield a ratio of approximately 1.8. In contrast, a compound which effectively prevents the extravasation in the dura from the stimulated side would have a ratio of approximately 1. The resulting data are analyzed with a one-way ANOVA followed by Dunnett's post hoc to determine statistical significance (p<0.05). Levels of compound in the plasma and brain samples for each animal are analyzed according to methods known to the skilled artisan. Evaluation of Compound Potency 24 or 48 Hours Following Oral Administration Envigo Sprague-Dawley, Sprague-Dawley male rats (250-350 grams, n=4/group) are fasted overnight prior to dosing for the duration p.o. study. The animals are orally gavaged with test compound or vehicle and returned to their cages with only water available; with food returned 1 hour later. Either 24 or 48 post-dose, the animals are anesthetized with Nembutal (65 mg/kg, ip.) and placed in a stereotaxic frame (David Kopf Instruments). The remainder of the protocol is identical to the method immediately above for Evaluation of Compound Potency 1 Hour Following Oral Administration. […] However, the unbound plasma and brain concentrations measured 24 hours following the administration of the 10 mg/kg dose, are not different from the exposures associated with the non-efficacious 0.1 mg/kg dose at one hour. […]

The test system of data set [2] is patients with migraine. The data set can be described thus: Phase 3 studies SAMURAI and SPARTAN, lasmiditan vs placebo for acute treatment of migraine. Format: in vivo, human. The source says: Prior clinical development studies of lasmiditan have employed acute on-demand treatment regimens to relieve migraine pain and symptoms and treat migraine. […] From this analysis, the authors concluded the primary and key secondary endpoints were met and safety outcomes were consistent across the two Phase 3 studies. Thus, acute on-demand use of lasmiditan provides effective treatment for a substantial population of migraine patients, however some patients may continue to have attacks and improved methods of treating and/or preventing these attacks represent an important therapeutic goal.
The placebo-controlled Phase 3 studies SAMURAI (NCT02439320) and SPARTAN (NCT02605174) evaluated lasmiditan 50 mg [SPARTAN only], 100 mg and 200 mg. […] GLADIATOR (NCT02565186) is a prospective randomized open-label Phase 3 study to evaluate long-term intermittent use of lasmiditan (100 mg or 200 mg) for acute treatment of migraine. An interim analysis of the effects of lasmiditan on migraine disability assessed with the MIDAS scale in GLADIATOR is described below, and has provided surprising and unexpected evidence of persistent beneficial effects in migraine patients.

Data set [3] deals with simulated driving performance. The data set can be described thus: Computer-based driving simulator study in healthy volunteers.
The mark [4] stands for this setting: brain, 10 mg/kg po, read-out: Unbound Brain Cone (mean ± SD; n = 4).
The mark [5] stands for this setting: plasma, 10 mg/kg po, read-out: Unbound Plasma Cone (mean ± SD; n = 4).
The mark [6] stands for this setting: 10 mg/kg po, 48 hrs post-dose, BQL = below quantitation level.

For `CN1CCC(C(=O)c2cccc(NC(=O)c3c(F)cc(F)cc3F)n2)CC1` [Lasmiditan, 2,4,6-trifluoro-N-[6-(1-methyl-piperidin-4-ylcarbonyl)-pyridin-2-yl]-benzamide], the concentration at 1 h in data set [1] (brain, 0.1 mg/kg po, read-out: Unbound Brain Cone (mean ± SD; n = 4)) turned out to be 2 ± 0.1 nM; in data set [1] (brain, 1 mg/kg po, read-out: Unbound Brain Cone (mean ± SD; n = 4)), 16.6 ± 3.6 nM; in data set [1] (setting [4]), 242 ± 95 nM; in data set [1] (plasma, 0.1 mg/kg po, read-out: Unbound Plasma Cone (mean ± SD; n = 4)) it was 6 ± 1.9 nM; in data set [1] (plasma, 1 mg/kg po, read-out: Unbound Plasma Cone (mean ± SD; n = 4)) it was 67 ± 19.8 nM; in data set [1] (setting [5]), 767 ± 254 nM. The concentration at 24 h was determined as 2.1 ± 0.9 nM in data set [1] (setting [4]) and 6.2 ± 2.5 nM in data set [1] (setting [5]). Besides, the “Unbound Brain Cone (mean ± SD; n = 4)” value in data set [1] (setting [6]) is listed as “BQL”. Moreover, in data set [1] (setting [6]), the “Unbound Plasma Cone (mean ± SD; n = 4)” value was “BQL”. Also, in data set [2] (50-mg to 200-mg dose range, 2-hour to 24-hour time frame after dosing), the “recurrence rates of migraine” value was “similarly low”. Further, the “efficacy on 2-hour pain freedom, dose relation” value in data set [2] (completed single-attack Phase 3 studies) is “dose related”. Moreover, the “TEAEs, 200 mg vs 100 mg” value in data set [2] (studies of lasmiditan for acute treatment of migraine) was “numerically more TEAEs”. Moreover, in data set [3] (after dosing), the “time by which impaired simulated driving performance resolved” value is ≤ 8 h. Moreover, the “driving impairment / simulated driving performance” value in data set [3] (all doses, acute treatment) is recorded as “impair simulated driving performance in a dose-dependent manner; also recorded: associated with driving impairment”.
